How the values were obtained:
[1] = biological target: T1, Recombinant EphA4 kinase His6-TEV-EphA4 (aa. 615-911) (Homo sapiens, UniProt P54764); experiment: EphA4 kinase enzymatic assay (TR-FRET); assay type: biochemical; details: for IC50: 25 μM ATP, TR-FRET; for inhibition at up to 100 µM: maximum percent inhibition, titration starting at 100 μM, read-out: EphA4 Kinase max inhibition in %
T1 construct: His6-TEV-EphA4 (36 KD) (aa. 615-911); His6 (N); TEV cleavage site (N); made in house; host or cells: Sf9 (baculovirus)
T1 sequence (P54764 615-911): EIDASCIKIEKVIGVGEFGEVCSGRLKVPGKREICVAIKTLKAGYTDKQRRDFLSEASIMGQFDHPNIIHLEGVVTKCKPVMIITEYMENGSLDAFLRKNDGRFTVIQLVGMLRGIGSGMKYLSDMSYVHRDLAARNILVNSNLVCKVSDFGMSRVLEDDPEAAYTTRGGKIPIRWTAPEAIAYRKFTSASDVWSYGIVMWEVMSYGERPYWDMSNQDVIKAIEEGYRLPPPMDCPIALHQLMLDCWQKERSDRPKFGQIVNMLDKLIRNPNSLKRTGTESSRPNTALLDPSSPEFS
Protocol: Recombinant EphA4 kinase His6-TEV-EphA4 (36 KD) (aa. 615-911) was expressed in Sf9 using baculovirus expression system. Hi-tagged protein was purified by high performance liquid chromatography in two step, using a His Trap HP column and a heparin column. The potency of compounds to inhibit EphA4 kinase phosphorylation was measured by an enzymatic assay based on time resolved fluorescence energy transfer assay format (TR-FRET), using Eu-W1024 anti-pTyr antibody (Perkin Elmer, USA) as a donor and SureLight APC (Perkin Elmer, USA) as an acceptor.
Biotinylated Poly(Glu Tyr) peptide (50 nM) was incubated in 384-well with 25 μM ATP (Sigma) and 10 ng EphA4 kinase in NEBuffer (New England Biolabs) for 60 minutes at rt. The reaction was stopped by 15 mM of EDTA solution for 10 minutes at rt. The detection mixture containing 0.5 nM Eu-W1024 anti-pTyr antibody (Perkin Elmer, USA) and 50 nM SureLight APC (Perkin Elmer, USA) was added to the wells and the plate was incubated for 30 min at rt, while protected from light. Energy transfer signal was measured using a Victor 2V (excitation filter 340, emission filter 615 and 665, delay time 50 μs). Results were expressed as ratios of the absorbencies 665/615.
Compounds were titrated in duplicate at 11 points concentration starting at 100 μM with a 3 fold increment. Compounds were diluted in DMSO. […] Percentage inhibition for each compound was then calculated based on the value of the 100% inhibition. Concentration-response curves were represented and the concentrations for 50% inhibition (IC50) were calculated.

[2] = test system: C2C12 mouse myoblast cell line; experiment: Scratch wound assay, C2C12 cells; assay type: cell-based; details: from AUC of % wound confluence; for IC50: Mus musculus, C2C12, inflexion point, read-out: Scratch Assay C2C12 Cells IP
Protocol: Cell Cultures: C2C12 mouse myoblast cell line (ATCC, VA, USA) was maintained in culture in DMEM media supplemented with 10% fetal bovine serum, 1 mM sodium pyruvate, 1.5 g/L sodium bicarbonate, and 100 IU of penicillin, […] of streptomycin. The cells were then differentiated into myotubes with DMEM supplemented with 2% horse serum for 3 days in 24 well ImageLock™ plate (Essen Instruments, MI, USA).
Scratch wound assays are commonly used to assess the effects of drugs and drug candidates on the cellular proliferation and/or migration associated with wound closing. The IncuCyte™ system (Essen Instruments, MI, USA), an automated imaging platform, provides ongoing, real-time images and quantitative data generated throughout the wound-closing process. Cells were maintained in 24 well ImageLock™ (Essen Instruments, MI, USA) at 37° C. and 95% CO2/5% O2, until a confluent monolayer was achieved. A single scratch wound was then created in each well using the Essen Woundmaker™ (Essen Instruments, MI, USA). It induced a mechanical scratch of the cell monolayer using plastic pipette tips (10-20 μl pipette tips, Eppendorff). Dead cells and other debris produced by the scratch were immediately washed with regular growth media. Cells were then treated with pharmacological agents and were placed into the IncuCyte™ at 37° C. and 95% CO2/5% O2, for two to three days. During this time, the wound area within each well was repeatedly imaged at fixed time intervals (every three hours). The IncuCyte™ scratch wound software generates a “wound mask” for each well. An initial wound mask is created for the first image (at time 0) that clearly delineates the border of the wound. A revised mask is generated for each subsequent image to track wound closure. Wound closure can be automatically monitored using the wound confluence (% confluence). Wound confluence can be graphed over time to evaluate the characteristics of wound closing in the presence of pharmacological agents.
The calculation of the area under the curve (AUC) of the % confluence function of the time gave a quantitative measurement of compounds efficacy on the scratch wound closing. Compounds were titrated in quadruplicate at 5 points concentration starting at 20 μM with a two-fold increment. The percentage of inhibition was calculated from the AUCs at each dose in comparison with the AUCs of the control wells (1% DMSO). Concentration-response curves were represented and the concentrations at the inflexion point (IP) were calculated. The maximum effect was given by the maximum percent inhibition.

C2C12 cells = experiment: Proliferation assay (cell confluence), C2C12 cells; assay type: cell-based, mouse; details: at 5 μM
Protocol: C2Cl2 were plated at 15,000 cells per well and then differentiated into myotubes with DMEM supplemented with 2% horse serum for 3 days in 24 well ImageLock™ plate (Essen Instruments, MI, USA). Primary Rat cortical astrocytes were plated at 3.105 cells/ml onto 24 well ImageLock™ plate.
Cells were placed into the IncuCyte™ at 37° C. and 95% CO2/5% O2, for two to three days. During this time, the cells within each well were repeatedly imaged at fixed time intervals (every three hours). The IncuCyte™ system automatically monitored the proliferation using the percentage of confluence. Percent of confluence can be graphed over time to evaluate the characteristics of proliferation in the presence of pharmacological agents.
Compounds were tested at 5 μM in quadruplicate. The percentage of reduction of cell confluence was calculated from the AUCs in comparison with the AUCs of the control wells (1% DMSO).

P38alpha kinase = biological target: T2, P38alpha kinase (Homo sapiens, UniProt Q16539); experiment: P38 alpha kinase counterscreen assay (Caliper mobility shift); assay type: biochemical
T2 construct: purchased Dundee Library
Protocol: A counterscreen assay was performed to measure p38alpha kinase activity using the Caliper System (LifeSciences, USA). This system is based on the microfluidic technology. P38 alpha kinase activity was measured by the shift in mobility of the non-phosphorylated form when separated by electrophoresis and detected via LED (Light Emitting Diode) induced fluorescence. This assay was automated following the manufacturer's protocol. P38alpha kinase and its substrate GST-MK2 were bought from Dundee Library.
Compounds were titrated, concentration-response curves were represented and the concentrations for 50% inhibition (IC50) were calculated.

T2 sequence (Q16539 whole entry): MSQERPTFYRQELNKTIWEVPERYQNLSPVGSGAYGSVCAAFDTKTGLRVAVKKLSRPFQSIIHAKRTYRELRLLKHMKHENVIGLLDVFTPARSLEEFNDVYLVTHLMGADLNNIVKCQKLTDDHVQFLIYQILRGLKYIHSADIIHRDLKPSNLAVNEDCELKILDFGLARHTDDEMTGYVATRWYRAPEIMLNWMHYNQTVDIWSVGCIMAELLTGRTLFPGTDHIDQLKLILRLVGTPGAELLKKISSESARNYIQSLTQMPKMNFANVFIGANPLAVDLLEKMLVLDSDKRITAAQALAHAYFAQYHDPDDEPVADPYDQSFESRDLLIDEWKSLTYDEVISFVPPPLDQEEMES

Structure (SMILES)	IC50 [1] [µM]	inhibition at up to 100 µM [1] [%]	IC50 [2] [µM]	Scratch Assay C2C12 Cells max inhibition in % [2] [%]	% Reduction of Confluence C2C12 Cells (C2C12 cells) [% at 5 μM]	IC50 (P38alpha kinase) [µM]
CC1CCc2c(-c3ccccc3Cl)nc3[nH]nc(N)c3c2C1 (stereo not drawn) [Example 63]	2.1	99	3.1	46	9.2	7.3
Cc1ccccc1-c1nc2[nH]nc(N)c2c2c1CCC(C)(C)C2 [Example 67]	1.5	100	0.5	78	49.2	3.7

From patent US20100113415A1, “EPHA4 RTK INHIBITORS FOR TREATMENT OF NEUROLOGICAL AND NEURODEGENERATIVE DISORDERS AND CANCER” (priority 2008, published 2010)
